# According to patent US8431596B2 (Cancer Research Technology Limited, priority 2007, dated 2013):
# pIC50: −log10 of the molar value.
# Biological target: T1, AXL (human catalytic domain) (Homo sapiens, UniProt P30530)
# T1 construct: purchased Upstate Ltd. 14-512
# T1 sequence (P30530 473-894): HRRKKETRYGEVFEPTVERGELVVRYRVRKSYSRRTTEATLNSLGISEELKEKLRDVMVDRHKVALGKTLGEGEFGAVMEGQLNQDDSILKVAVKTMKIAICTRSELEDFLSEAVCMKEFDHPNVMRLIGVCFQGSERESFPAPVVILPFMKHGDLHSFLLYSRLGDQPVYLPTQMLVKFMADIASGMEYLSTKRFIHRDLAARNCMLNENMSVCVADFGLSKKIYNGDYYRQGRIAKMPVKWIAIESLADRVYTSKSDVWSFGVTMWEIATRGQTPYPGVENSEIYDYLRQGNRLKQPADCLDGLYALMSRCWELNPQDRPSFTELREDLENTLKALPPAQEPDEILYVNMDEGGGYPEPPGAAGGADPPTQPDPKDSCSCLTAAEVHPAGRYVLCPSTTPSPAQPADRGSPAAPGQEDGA
# Assay: AXL (human catalytic domain) Enzyme Activity Assay (IMAP fluorescence polarisation)
# Assay type: biochemical
# In short: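 IMAP FP readout (Ex485/Em535, after overnight binding) measured inhibition of the human AXL catalytic domain (aa473-894, 15 nM final) acting on 100 nM 5FAM-CSK-tide at 150 μM ATP, equal to KM. Reactions ran 60 min at room temperature in pH 7.0 HEPES buffer; IC50 from 10-point curves.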
# [1] = further data set (WW-001 through WW-169, XX-001 through XX-469, YY-001 through YY-016, ZZ-001 through ZZ-003), 150 μM ATP
# [2] = first data set, recombinant AXL isoform 1 aa473-894, 150 μM ATP
SMILES,pIC50 [1],pIC50 [2]
O=C(Cn1cc(-c2cccc3nc(Nc4ccc(OCCN5CCCC5)cc4)nn23)cn1)NC1CC1 [XX-437],5.00 to 6.00,
CN(C)C/C=C/c1ccc(Nc2nc3cccc(-c4ccc5c(c4)OCCO5)n3n2)cc1 [XX-082],≥ 7.00,> 6.00
c1cc(-c2ccc(-c3ccsc3)cc2)n2nc(Nc3ccc(OCCN4CCCC4)cc3)nc2c1 [XX-186],6.00 to 7.00,
Fc1ccc(Nc2nc3cccc(-c4ccc5c(c4)OCCO5)n3n2)cc1OCCN1CCCC1 [XX-134],6.00 to 7.00,
"CC(C)CC(=O)NCc1cccc(-c2cccc3nc(Nc4ccc(OCCN5CCCC5)cc4)nn23)c1 [XX-325, 3-Methyl-N-(3-{2-[4-(2-pyrrolidin-1-yl-ethoxy)-phenylamino]-[1,2,4]triazolo[1,5-a]pyridin-5-yl}-benzyl)-butyramide]",6.00 to 7.00,
c1cc(NCC2CC2)cc(-c2cccc3nc(Nc4ccc(OCCN5CCCC5)cc4)nn23)c1 [XX-444],6.00 to 7.00,
O=C(Nc1ccc(Cl)cc1)Nc1cccc(-c2cccc3nc(Nc4ccc(OCCN5CCCC5)cc4)nn23)c1 [XX-233],5.00 to 6.00,
CN(C)C(=O)c1ccc(-c2cccc3nc(NC(=O)C4CC4)nn23)cc1 [WW-029],5.00 to 6.00,5.00 to 6.00
c1cc(-c2ccc3nonc3c2)n2nc(Nc3ccc(OCCN4CCCC4)cc3)nc2c1 [XX-208],6.00 to 7.00,
Cc1cccc(CS(=O)(=O)n2cc(-c3cccc4nc(Nc5ccc(OCCN6CCCC6)cc5)nn34)cn2)c1 [XX-286],6.00 to 7.00,
CC(CNc1cccc(Nc2nc3cccc(-c4ccc5c(c4)OCCO5)n3n2)c1)N1CCCC1 (stereo not drawn) [XX-140],6.00 to 7.00,
O=C(Cn1cc(-c2cccc3nc(Nc4ccc(OCCN5CCCC5)cc4)nn23)cn1)c1ccccc1 [XX-346],6.00 to 7.00,
"c1ccc(-c2cccc(-c3cccc4nc(Nc5ccc(OCCN6CCCC6)cc5)nn34)c2)cc1 [XX-164, (5-Biphenyl-3-yl-[1,2,4]triazolo[1,5-a]pyridin-2-yl)-[4-(2-pyrrolidin-1-yl-ethoxy)-phenyl]-amine]",6.00 to 7.00,
Cc1ccc(-c2cccc3nc(NC(=O)C4CC4)nn23)cc1 [WW-047],6.00 to 7.00,> 6.00
O=C(Nc1nc2cccc(-c3ccc4c(c3)OCCO4)n2n1)C1CC1 [WW-102],6.00 to 7.00,> 6.00
CCN(CC)CCOc1ccc(Nc2nc3cccc(-c4ccc(OC)cc4)n3n2)cc1F [XX-412],5.00 to 6.00,
COc1ccc(-c2cccc3nc(Nc4ccc(OC[C@@H](c5ccccc5)N5CCCC5)cc4)nn23)cc1 [XX-411],6.00 to 7.00,
COc1ccc(-c2cccc3nc(Nc4ccc(OCCN5CCCC5)cc4)nn23)cc1F [XX-240],6.00 to 7.00,
Cc1cc(C)cc(-c2nccc3nc(Nc4ccc(OCCN5CCCC5)cc4)nn23)c1 [YY-015],6.00 to 7.00,
Cc1ccc(-c2cccc3nc(Nc4ccc(OCCN5CCCC5)cc4)nn23)cc1F [XX-280],≥ 7.00,
CCCS(=O)(=O)n1cc(-c2cccc3nc(Nc4ccc(OCCN5CCCC5)cc4)nn23)cn1 [XX-380],≥ 7.00,
CCN(CC)CC(=O)Nc1cccc(Nc2nc3cccc(-c4ccc5c(c4)OCCO5)n3n2)c1 [XX-120],6.00 to 7.00,

SMILES,pIC50 [1],pIC50 [2]
"O=C(Nc1nc2cccc(-c3ccccc3)n2n1)C1CC1 [WW-001, Cyclopropanecarboxylic acid (5-phenyl-[1,2,4]triazolo[1,5-a]pyridin-2-yl)-amide]",6.00 to 7.00,> 6.00
CCN(CC)CCNS(=O)(=O)c1ccc(Nc2nc3cccc(-c4ccc5c(c4)OCCO5)n3n2)cc1 [XX-173],6.00 to 7.00,
COc1ccc(-c2cccc(-c3cccc4nc(Nc5ccc(OCCN6CCCC6)cc5)nn34)c2)cc1 [XX-468],5.00 to 6.00,
COc1ccc(-c2cccc3nc(Nc4ccc(N(C)C)cc4)nn23)cc1 [XX-057],5.00 to 6.00,5.00 to 6.00
CCCCNc1cccc(-c2cccc3nc(Nc4ccc(OCCN5CCCC5)cc4)nn23)c1 [XX-399],6.00 to 7.00,
CC(C)Oc1ccc(-c2cccc3nc(Nc4ccc(OCCN5CCCC5)cc4)nn23)cc1 [XX-012],6.00 to 7.00,> 6.00
Cn1cc(-c2cccc3nc(NC(=O)C4CC4)nn23)cn1 [WW-064],6.00 to 7.00,> 6.00
COc1cc(-c2cccc3nc(Nc4ccc(OCCN5CCCC5)cc4)nn23)ccc1F [XX-334],6.00 to 7.00,
COc1ccc(-c2cccc3nc(Nc4ccc(C(=O)NCCN5CCCC5)s4)nn23)cc1 [XX-409],6.00 to 7.00,
Clc1ccccc1Cn1cc(-c2cccc3nc(Nc4ccc(OCCN5CCCC5)cc4)nn23)cn1 [XX-354],6.00 to 7.00,
COc1ccc(CNc2ccc(-c3cccc4nc(Nc5ccc(OCCN6CCCC6)cc5)nn34)cc2)cc1 [XX-266],6.00 to 7.00,
O=C(Nc1nc2cccc(-c3ccc(F)cc3)n2n1)C1CC1 [WW-013],5.00 to 6.00,5.00 to 6.00
CC(c1ccccc1)n1cc(-c2cccc3nc(Nc4ccc(OCCN5CCCC5)cc4)nn23)cn1 (stereo not drawn) [XX-306],6.00 to 7.00,
NC(=O)COc1ccc(Nc2nc3cccc(-c4ccc5c(c4)OCCO5)n3n2)cc1 [XX-073],6.00 to 7.00,> 6.00
CN(C)c1cccc(-c2cccc3nc(Nc4ccc(OCCN5CCCC5)cc4)nn23)c1 [XX-236],6.00 to 7.00,
Cc1ccccc1COc1cccc(-c2cccc3nc(Nc4ccc(OCCN5CCCC5)cc4)nn23)c1 [XX-400],5.00 to 6.00,
c1cc(-c2cncnc2)cc(-c2cccc3nc(Nc4ccc(OCCN5CCCC5)cc4)nn23)c1 [XX-469],6.00 to 7.00,
c1cc(-c2ccc(N3CCOCC3)cc2)n2nc(Nc3ccc(OCCN4CCCC4)cc3)nc2c1 [XX-038],≥ 7.00,> 6.00
CC(C)CCn1cc(-c2cccc3nc(Nc4ccc(OCCN5CCCC5)cc4)nn23)cn1 [XX-353],≥ 7.00,
"c1cc(-c2cn[nH]c2)n2nc(Nc3ccc(OCCN4CCCC4)cc3)nc2c1 [XX-202, [5-(1H-Pyrazol-4-yl)-[1,2,4]triazolo[1,5-a]pyridin-2-yl]-[4-(2-pyrrolidin-1-yl-ethoxy)-phenyl]-amine]",6.00 to 7.00,
O=C(Nc1nc2cccc(-c3ccc(NS(=O)(=O)c4ccccc4)cc3)n2n1)C1CC1 [WW-156],5.00 to 6.00,5.00 to 6.00
O=C(Nc1nc2cccc(-c3cncc(F)c3)n2n1)C1CC1 [WW-052],5.00 to 6.00,5.00 to 6.00

SMILES,pIC50 [1],pIC50 [2]
COc1ccc(-c2cccc3nc(NC(=O)C4CC4)nn23)cc1C [WW-094],6.00 to 7.00,> 6.00
Nc1cccc(-c2cccc3nc(NC(=O)C4CC4)nn23)c1 [WW-054],6.00 to 7.00,> 6.00
CN(C)CCOc1ncc(Nc2nc3cccc(-c4ccc5c(c4)OCCO5)n3n2)cn1 [XX-078],6.00 to 7.00,> 6.00
c1cc(-c2ccc(NCc3ccoc3)cc2)n2nc(Nc3ccc(OCCN4CCCC4)cc3)nc2c1 [XX-268],6.00 to 7.00,
"COc1cccc(COc2ccc(-c3cccc4nc(NC(=O)C5CC5)nn34)cc2)c1 [WW-123, Cyclopropanecarboxylic acid {5-[4-(3-methoxy-benzyloxy)-phenyl]-[1,2,4]triazolo[1,5-a]pyridin-2-yl}-amide]",5.00 to 6.00,5.00 to 6.00
Cc1cccc(Cn2cc(-c3cccc4nc(Nc5ccc(OCCN6CCCC6)cc5)nn34)cn2)c1 [XX-290],≥ 7.00,
CCOc1ccc(-c2cccc3nc(NC(=O)C4CC4)nn23)cc1F [WW-101],5.00 to 6.00,5.00 to 6.00
COc1ccc(-c2cccc3nc(Nc4ccc(OCCNCc5cccnc5)cc4)nn23)cc1 [XX-033],6.00 to 7.00,> 6.00
COc1ccc(-c2cccc3nc(Nc4ccc(C(=O)NCCN5CCCC5)o4)nn23)cc1 [XX-408],6.00 to 7.00,
CN(C)CCNC(=O)c1ccc(Nc2nc3cccc(-c4ccc5occc5c4)n3n2)cc1 [XX-084],≥ 7.00,> 6.00
CCN(CC)CCOc1cc(Nc2nc3ccnc(-c4cnn(Cc5ccccc5)c4)n3n2)ccn1 [YY-016],5.00 to 6.00,
Cn1cncc1CNc1cccc(-c2cccc3nc(Nc4ccc(OCCN5CCCC5)cc4)nn23)c1 [XX-259],6.00 to 7.00,
O=S(=O)(c1ccccc1Cl)n1cc(-c2cccc3nc(Nc4ccc(OCCN5CCCC5)cc4)nn23)cn1 [XX-378],≥ 7.00,
c1cc(-c2ccc3cc[nH]c3c2)n2nc(Nc3ccc(OCCCN4CCCCC4)cc3)nc2c1 [XX-347],6.00 to 7.00,
Cn1cc(-c2ccc(-c3cccc4nc(Nc5ccc(OCCN6CCCC6)cc5)nn34)cc2)cn1 [XX-149],6.00 to 7.00,
"Cc1cc(-c2cccc3nc(NC(=O)C4CC4)nn23)cc(C)c1O [WW-008, Cyclopropanecarboxylic acid [5-(4-hydroxy-3,5-dimethyl-phenyl)-[1,2,4]triazolo[1,5-a]pyridin-2-yl]-amide]",5.00 to 6.00,5.00 to 6.00
CCc1nnc(NCCOc2ccc(Nc3nc4cccc(-c5ccc(OC)cc5)n4n3)cc2)[nH]1 [XX-030],6.00 to 7.00,> 6.00
CC(Oc1cccc(-c2cccc3nc(Nc4ccc(OCCN5CCCC5)cc4)nn23)c1)C(=O)Nc1ccccc1 (stereo not drawn) [XX-403],6.00 to 7.00,
c1cc(NCc2nc3c(s2)CCCC3)cc(-c2cccc3nc(Nc4ccc(OCCN5CCCC5)cc4)nn23)c1 [XX-447],6.00 to 7.00,
c1ccc(COc2cccc(-c3cccc4nc(Nc5ccc(OCCN6CCCC6)cc5)nn34)c2)cc1 [XX-278],6.00 to 7.00,
O=C(Nc1cccc(-c2cccc3nc(Nc4ccc(OCCN5CCCC5)cc4)nn23)c1)C1CC1 [XX-178],6.00 to 7.00,
